Key:
Type in all cases: cell-based
Serratia marcescens = test: MIC against Gram-negative bacteria: Serratia marcescens; conditions: for MIC against S. marcescens / MIC (μg/mL) S. marcescens: 5×10^5 CFU/mL
Summary of the method: (§1)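 First, colonies from LB agar were grown in LB at 37° C, 185 rpm, to McFarland turbidity 0.5, then centrifuged and resuspended in fresh LB. Next, wells received 5×10^5 CFU/mL bacteria plus two-fold serially diluted EGF domain protein (triplicate). Finally, plates were shaken at 37° C and the no-growth concentration taken as MIC.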

Pseudomonas aeruginosa = test: MIC against Gram-negative bacteria: Pseudomonas aeruginosa; conditions: for MIC against P. aeruginosa / MIC (μg/mL) P. aeruginosa: 5×10^5 CFU/mL
Summary of the method: as §1

Aeromonas hydrophila = test: MIC against Gram-negative bacteria: Aeromonas hydrophila; conditions: for MIC against A. hydrophila / MIC (μg/mL) A. hydrophila: 5×10^5 CFU/mL
Summary of the method: as §1

Proteus mirabilis = test: MIC against Gram-negative bacteria: Proteus mirabilis; conditions: for MIC against P. mirabilis / MIC (μg/mL) P. mirabilis: 5×10^5 CFU/mL
Summary of the method: as §1

Enterobacter cloacae = test: MIC against Gram-negative bacteria: Enterobacter cloacae; conditions: for MIC against E. cloacae / MIC (μg/mL) E. cloacae: 5×10^5 CFU/mL
Summary of the method: as §1

Moraxella catarrhalis = test: MIC against Gram-negative bacteria: Moraxella catarrhalis; conditions: for MIC against M. catarrhalis / MIC (μg/mL) M. catarrhalis: 5×10^5 CFU/mL
Summary of the method: as §1

E. coli BL21 = test: MIC against Gram-negative bacteria: E. coli BL21; conditions: for MIC against E. coli BL21 / MIC (μg/mL) E. coli BL21: 5×10^5 CFU/mL
Summary of the method: as §1

E. coli DH5α = test: Antibacterial activity: MIC and growth curve against E. coli DH5α in 96-well plate; conditions: minimal inhibitory concentration against E. coli DH5α; 96-well plate, 5×10^5 CFU/mL, 37° C., judged after 8 h
Summary of the method: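 Log-phase DH5α (OD600 about 0.5, 37° C, 185 rpm in LB) was pelleted, resuspended in fresh LB and seeded at 5×10^5 CFU/mL with recombinant protein at 50, 25 and 12.5 μg/mL (two-fold series), in triplicate. Plates were shaken at 175 rpm, 37° C, and OD600 was read every 30 min. MIC was the lowest concentration with no growth.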

Proteus vulgaris = test: MIC against Gram-negative bacteria: Proteus vulgaris; conditions: for MIC against P. vulgaris / MIC (μg/mL) P. vulgaris: 5×10^5 CFU/mL
Summary of the method: as §1

Citrobacter diversus = test: MIC against Gram-negative bacteria: Citrobacter diversus; conditions: for MIC against C. diversus / MIC (μg/mL) C. diversus: 5×10^5 CFU/mL
Summary of the method: as §1

Klebsiella pneumonia = test: MIC against Gram-negative bacteria: Klebsiella pneumonia; conditions: for MIC against K. pneumonia / MIC (μg/mL) K. pneumonia: 5×10^5 CFU/mL
Summary of the method: as §1

[1] = S. marcescens, 10 h cultivation at 37° C.
[2] = P. aeruginosa, 10 h cultivation at 37° C.
[3] = A. hydrophila, 10 h cultivation at 37° C.
[4] = P. mirabilis, 10 h cultivation at 37° C.
[5] = E. cloacae, 10 h cultivation at 37° C.
[6] = M. catarrhalis, 10 h cultivation at 37° C.
[7] = E. coli BL21, 10 h cultivation at 37° C.
[8] = P. vulgaris, 10 h cultivation at 37° C.
[9] = C. diversus, 10 h cultivation at 37° C.
[10] = K. pneumonia, 10 h cultivation at 37° C.

With “PRT491 (LDICSKNPCHNGGLCEEISQEVRGDVFPSYTCTCLKGYAGNHCE; listed as Homo sapiens)” the “MIC against S. marcescens” value (Serratia marcescens; 96-well plate, 37° C., 10 h) was 12.5 µg/mL, the “MIC against P. aeruginosa” value (Pseudomonas aeruginosa; 96-well plate, 37° C., 10 h) was 50 µg/mL and the “MIC against A. hydrophila” value (Aeromonas hydrophila; 96-well plate, 37° C., 10 h) was 100 µg/mL. The “MIC against P. mirabilis” value (Proteus mirabilis; 96-well plate, 37° C., 10 h) was 50 µg/mL, the “MIC against E. cloacae” value (Enterobacter cloacae; 96-well plate, 37° C., 10 h) was 50 µg/mL and the “MIC against M. catarrhalis” value (Moraxella catarrhalis; 96-well plate, 37° C., 10 h) was 12.5 µg/mL. For the same substance, the “MIC against E. coli BL21” value (E. coli BL21; 96-well plate, 37° C., 10 h) was 25 µg/mL, the MIC (E. coli DH5α) was 12.5 µg/mL and the “MIC against P. vulgaris” value (Proteus vulgaris; 96-well plate, 37° C., 10 h) was 25 µg/mL. The “MIC against C. diversus” value (Citrobacter diversus; 96-well plate, 37° C., 10 h) was 50 µg/mL and the “MIC against K. pneumonia” value (Klebsiella pneumonia; 96-well plate, 37° C., 10 h) was 12.5 µg/mL.
“PRT1014 (LRDFCSANPCVNGGVCLATYPQIQCHCPPGFEGHACE; listed as Homo sapiens)” showed an MIC (Serratia marcescens; [1]) of 25 µg/mL, an MIC (Pseudomonas aeruginosa; [2]) of 50 µg/mL and an MIC (Aeromonas hydrophila; [3]) of 50 µg/mL. It also gave an MIC (Proteus mirabilis; [4]) of 12.5 µg/mL, an MIC (Enterobacter cloacae; [5]) of 12.5 µg/mL and an MIC (Moraxella catarrhalis; [6]) of 50 µg/mL. It also gave an MIC (E. coli BL21; [7]) of 25 µg/mL, an MIC (E. coli DH5α) of 12.5 µg/mL and an MIC (Proteus vulgaris; [8]) of 50 µg/mL. For the same substance, the MIC (Citrobacter diversus; [9]) was 12.5 µg/mL and the MIC (Klebsiella pneumonia; [10]) was 25 µg/mL.
For “PRT1418 (IAHYLDRVVKEGCPGLCNGNGRCTLDLNGWHCVCQLGWRGAGCD; listed as Homo sapiens)”, the “MIC against S. marcescens” value (Serratia marcescens; Serratia marcescens, 10 h cultivation at 37° C.) was 25 µg/mL, the “MIC against P. aeruginosa” value (Pseudomonas aeruginosa; Pseudomonas aeruginosa, 10 h cultivation at 37° C.) was 25 µg/mL and the “MIC against A. hydrophila” value (Aeromonas hydrophila; Aeromonas hydrophila, 10 h cultivation at 37° C.) was 25 µg/mL. For the same substance, the “MIC against P. mirabilis” value (Proteus mirabilis; Proteus mirabilis, 10 h cultivation at 37° C.) was 12.5 µg/mL, the “MIC against E. cloacae” value (Enterobacter cloacae; Enterobacter cloacae, 10 h cultivation at 37° C.) was 25 µg/mL and the “MIC against M. catarrhalis” value (Moraxella catarrhalis; Moraxella catarrhalis, 10 h cultivation at 37° C.) was 50 µg/mL. The “MIC against E. coli BL21” value (E. coli BL21; [7]) was 12.5 µg/mL, the MIC (E. coli DH5α) was 25 µg/mL and the “MIC against P. vulgaris” value (Proteus vulgaris; Proteus vulgaris, 10 h cultivation at 37° C.) was 50 µg/mL. The “MIC against C. diversus” value (Citrobacter diversus; Citrobacter diversus, 10 h cultivation at 37° C.) was 12.5 µg/mL and the “MIC against K. pneumonia” value (Klebsiella pneumonia; Klebsiella pneumonia, 10 h cultivation at 37° C.) was 50 µg/mL.
“PRT124 (ITDRCSPNMCEHDGRCYQSWDDFICYCELTGYKGETCH; listed as Homo sapiens)” was tested, and the “MIC (μg/mL) S. marcescens” value (Serratia marcescens; Serratia marcescens, 96-well plate, 37° C., 10 h) was 12.5 µg/mL, the “MIC (μg/mL) P. aeruginosa” value (Pseudomonas aeruginosa; Pseudomonas aeruginosa, 96-well plate, 37° C., 10 h) was 12.5 µg/mL and the “MIC (μg/mL) A. hydrophila” value (Aeromonas hydrophila; Aeromonas hydrophila, 96-well plate, 37° C., 10 h) was 12.5 µg/mL. For the same substance, the “MIC (μg/mL) P. mirabilis” value (Proteus mirabilis; Proteus mirabilis, 96-well plate, 37° C., 10 h) was 12.5 µg/mL, the “MIC (μg/mL) E. cloacae” value (Enterobacter cloacae; Enterobacter cloacae, 96-well plate, 37° C., 10 h) was 12.5 µg/mL and the “MIC (μg/mL) M. catarrhalis” value (Moraxella catarrhalis; Moraxella catarrhalis, 96-well plate, 37° C., 10 h) was 12.5 µg/mL. For the same substance, the “MIC (μg/mL) E. coli BL21” value (E. coli BL21; E. coli BL21, 96-well plate, 37° C., 10 h) was 50 µg/mL, the MIC (E. coli DH5α) was 12.5 µg/mL and the “MIC (μg/mL) P. vulgaris” value (Proteus vulgaris; Proteus vulgaris, 96-well plate, 37° C., 10 h) was 12.5 µg/mL. The “MIC (μg/mL) C. diversus” value (Citrobacter diversus; Citrobacter diversus, 96-well plate, 37° C., 10 h) was 12.5 µg/mL and the “MIC (μg/mL) K. pneumonia” value (Klebsiella pneumonia; Klebsiella pneumonia, 96-well plate, 37° C., 10 h) was 50 µg/mL.
With “PRT170 (CTHHKPCKNGATCTNTGQGSYTCSCRPGYTGATC; listed as Homo sapiens)” the “MIC (μg/mL) S. marcescens” value (Serratia marcescens; [1]) was 12.5 µg/mL, the “MIC (μg/mL) P. aeruginosa” value (Pseudomonas aeruginosa; [2]) was 12.5 µg/mL and the “MIC (μg/mL) A. hydrophila” value (Aeromonas hydrophila; [3]) was 25 µg/mL. The “MIC (μg/mL) P. mirabilis” value (Proteus mirabilis; [4]) was 50 µg/mL, the “MIC (μg/mL) E. cloacae” value (Enterobacter cloacae; [5]) was 50 µg/mL and the “MIC (μg/mL) M. catarrhalis” value (Moraxella catarrhalis; [6]) was 25 µg/mL. The “MIC (μg/mL) E. coli BL21” value (E. coli BL21; [7]) was 25 µg/mL, the MIC (E. coli DH5α) was 50 µg/mL and the “MIC (μg/mL) P. vulgaris” value (Proteus vulgaris; [8]) was 25 µg/mL. For the same substance, the “MIC (μg/mL) C. diversus” value (Citrobacter diversus; [9]) was 12.5 µg/mL and the “MIC (μg/mL) K. pneumonia” value (Klebsiella pneumonia; [10]) was 25 µg/mL.
Substance “PRT958 (DVDECSIGANPCEHLGRCVNTQGSFLCQCGRGYTGPRCE; listed as Homo sapiens)” has an MIC (Serratia marcescens; [1]) of 25 µg/mL, an MIC (Pseudomonas aeruginosa; [2]) of 25 µg/mL and an MIC (Aeromonas hydrophila; [3]) of 25 µg/mL. The MIC (Proteus mirabilis; [4]) was 25 µg/mL, the MIC (Enterobacter cloacae; [5]) was 25 µg/mL and the MIC (Moraxella catarrhalis; [6]) was 50 µg/mL. It also gave an MIC (E. coli BL21; [7]) of 12.5 µg/mL, an MIC (E. coli DH5α) of 50 µg/mL and an MIC (Proteus vulgaris; [8]) of 12.5 µg/mL. It also gave an MIC (Citrobacter diversus; [9]) of 12.5 µg/mL and an MIC (Klebsiella pneumonia; [10]) of 50 µg/mL.
